Results reported in patent US20200277373A1, “ANTI-TREM2 ANTIBODIES AND METHODS OF USE THEREOF” (Denali Therapeutics Inc., priority 2017, published 2020).

Experiments:
Assay type in all cases: cell-based
[1] = test system: primary human macrophages; experiment: Liposome stimulation pSyk AlphaLISA, primary human macrophages; conditions: liposomes 30% lipid/70% PC (KLA 10%/90%)
Method: (§1) Lipids were purchased from Avanti Polar Lipids (Alabaster, Ala.) or Echelon Biosciences (Salt Lake City, Utah). Each screened lipid was resuspended in chloroform and added at 30 mole percent composition to 70 mole percent phosphatidylcholine (PC; 1,2-dioleoyl-sn-glycero-3-phosphocholine, Avanti Polar Lipids). Kdo2-Lipid A was added at a 10 mole percent composition with 90 mole percent PC. Lipid mixes were dried under nitrogen gas and resuspended in HBSS at a concentration of 4 mg/mL. Mixes were vortexed or briefly sonicated until resuspended, then bath sonicated for 1-5 minutes. Liposomes were used for 1-2 weeks. 3 independent batches of liposomes were used in experiments.
10 mL human blood was obtained from Blood Centers of the Pacific. Monocytes were extracted using RosetteSep Human Monocyte Enrichment Cocktail ([…] Technologies Inc.; Vancouver, BC; #15068) as per manufacturer protocols. Density gradient was performed with Ficoll-Paque Premium (GE Healthcare Life Sciences; Pittsburgh, Pa.; #17-5442-02). Isolated monocytes were resuspended at ˜1-1.3 million cells/mL and cultured for 5-6 days in RPMI, 10% Hyclone Fetal Bovine Serum, and penicillin/streptomycin supplemented with 50 ng/mL human M-CSF (Gibco, # PHC9501) in T175 tissue culture treated flasks. M-CSF was replenished every 2-3 days. Cells were washed once with PBS, 15 mL fresh medium was added, and cells were harvested by scraping. Cells were cultured overnight at a density of 100,000 cells per well on tissue culture treated 96-well plates supplemented with 10-25 ng/mL M-CSF.
(§2) Cell culture medium was removed and cells were washed once with 200ul HBSS. Liposomes were diluted in HBSS in concentrations ranging from 0.03125 mg/mL to 2 mg/mL, then 50 μl was added to wells in 2-3 technical replicates per plate. Each plate contained HBSS negative control wells, 100% PC liposome control, 5 μg/mL agonist anti-TREM2 positive control (Abnova; Taiwan; # MAB2056), and 5 μg/mL mouse IgG3 isotype control (R&D Systems; Minneapolis, Minn.; # MAB007). Stimuli were incubated with cells for 5 minutes at 37° C., 5% CO2, liposomes were removed, and plates were frozen at −80° C.
(§3) Cells were lysed for 30 minutes to 1 hour on ice in 50 ul/well Cell Lysis Buffer (Cell Signaling Technology; Danvers, Mass.; #9803) with 1 mM PMSF. AlphaLISA SureFire Ultra p-Syk Tyr525/526 assay kit (PerkinElmer, ALSU-PSYK-A10OK) was used to measure pSyk levels in lysate as per manufacturer protocol. 10 μl lysate was added to 384-well OptiPlates (PerkinElmer; #6007290) and an EnVision Multilabel Plate Reader (PerkinElmer) was used to measure AlphaLISA fluorescence.
(§4) PSyk AlphaLISA fluorescence was converted to a log 2 scale. Fluorescence values from liposomes and controls were each subtracted from average fluorescence values from HBSS stimulated wells on the same plate (log 2(liposome)−log 2(HBSSave)=log 2(signal)). The result was converted back to a standard scale to measure fold change (2^log 2(signal)=fold change). Technical replicate fold changes values were averaged to obtain the fold change over background listed (pSyk FOB). Graphs represent values from independent experiments or individual human donors. Results from the screen on the HEK293 overexpressing cell lines are shown in Table 9 below and in FIG. 8A-8B. HEK293 results showing specificity for TREM2 over DAP12 expressed alone can be used to extrapolate which lipid species are likely acting as TREM2 ligands on human macrophages.

DAP12 alone = target: T1, DAP12 alone (Homo sapiens, UniProt O43914); experiment: Liposome stimulation pSyk AlphaLISA, HEK293 expressing DAP12 alone; conditions: liposomes 30% lipid/70% PC (KLA 10%/90%), fold change over HBSS
T1 construct: expressed in transfected cells
T1 sequence (O43914 22-113): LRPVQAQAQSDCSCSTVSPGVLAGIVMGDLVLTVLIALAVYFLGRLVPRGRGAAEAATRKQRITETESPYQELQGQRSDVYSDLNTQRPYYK
Method: as §1
(§5) HEK293 cell lines overexpressing TREM2 and DAP12, mutant TREM2-R47H and DAP12, or DAP12 alone were plated in 96-well PDL-coated plates at a density of 40,000 cells per well and cultured for 36-48 hours until 90-100% confluent.
as §2, §3, §4

R47H TREM2 mutant = target: T2, R47H TREM2 mutant (Homo sapiens, UniProt Q9NZC2, R47H); experiment: Liposome stimulation pSyk AlphaLISA, HEK293 overexpressing TREM2-R47H and DAP12; conditions: liposomes 30% lipid/70% PC (KLA 10%/90%), fold change over HBSS
T2 construct: expressed in transfected cells
T2 sequence (Q9NZC2 19-230 R47H): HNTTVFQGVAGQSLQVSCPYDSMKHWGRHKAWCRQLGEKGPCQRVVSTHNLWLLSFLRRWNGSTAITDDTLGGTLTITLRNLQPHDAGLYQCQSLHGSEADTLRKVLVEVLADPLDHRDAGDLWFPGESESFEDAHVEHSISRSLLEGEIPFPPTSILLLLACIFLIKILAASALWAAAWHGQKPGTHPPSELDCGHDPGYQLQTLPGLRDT
T2 sequence (O43914 22-113 partner): as the sequence (O43914 22-113) above
Method: as §1, §5, §2, §3, §4

TREM2 = target: T3, TREM2 (Homo sapiens, UniProt Q9NZC2); experiment: Liposome stimulation pSyk AlphaLISA, HEK293 overexpressing TREM2 and DAP12; conditions: liposomes 30% lipid/70% PC (KLA 10%/90%), fold change over HBSS
T3 construct: expressed in transfected cells
T3 sequence (Q9NZC2 19-230): as the sequence (Q9NZC2 19-230 R47H) above, with H29R counted along it
T3 sequence (O43914 22-113 partner): as the sequence (O43914 22-113) above
Method: as §1, §5, §2, §3, §4

Compound | pSyk FOB [1] | DAP12 alone (pSyk FOB) (DAP12 alone) | R47H TREM2 mutant (pSyk FOB) (R47H TREM2 mutant) | Human TREM2 (pSyk FOB) (TREM2)
C[C@@H](CO)CCC[C@@H](C)[C@H]1CC[C@H]2[C@@H]3CC=C4C[C@@H](O)CC[C@]4(C)[C@H]3CC[C@]12C [27-hydroxycholesterol (27OHC), 27-hydroxycholesterol] | 1.72 FOB | 1.36 FOB | 9.25 FOB | 5.26 FOB
Sulfatide | 1.75 FOB | 1.21 FOB | 6.34 FOB | 5.02 FOB
Phosphatidylethanolamine [Phosphatidylethanolamine (PE) or DSPE] | 1.53 FOB | 1.51 FOB | 2.49 FOB | 1.49 FOB
Bis(monoacylglycero)phosphate [Bis(monoacylglycero)phosphate (BMP)] | 2.19 FOB | 1.42 FOB | 3.04 FOB | 4.85 FOB
Lysophosphatidylserine [Lysophosphatidylserine (LPS)] | 1.78 FOB | 1.39 FOB | 3.88 FOB | 3.77 FOB
Ether phosphatidylcholine [Ether phosphatidylcholine (PCe)] | 1.29 FOB | 1.33 FOB | 3.97 FOB | 2.94 FOB
Ceramide-1-phosphate [Ceramide-1-phosphate (C1P)] | 2.28 FOB | 1.16 FOB | 4.00 FOB | 3.89 FOB
Galactosylceramide [Galactosylceramide (GalCer)] | 1.98 FOB | 1.16 FOB | 4.65 FOB | 3.45 FOB
Lysophosphatidylglycerol [Lysophosphatidylglycerol (LPG)] | 1.64 FOB | 1.28 FOB | 3.44 FOB | 4.83 FOB
Lysophosphatidylethanolamine [LysophosphatidyLethanolamine (LPE)] | 2.03 FOB | 1.28 FOB | 3.58 FOB | 4.16 FOB
Ceramide | 1.44 FOB | 1.30 FOB | 2.21 FOB | 2.20 FOB
CC(C)CCC[C@@H](C)[C@H]1CC[C@H]2[C@@H]3CC=C4C[C@@H](OP(=O)(O)O)CC[C@]4(C)[C@H]3CC[C@]12C [Cholesterol phosphate (CP), Cholesterol phosphate] | 1.18 FOB | 1.27 FOB | 3.09 FOB | 2.43 FOB
Phosphatidylinositol [Phosphatidylinositol (PI)] | 2.09 FOB | 1.04 FOB | 2.27 FOB | 4.31 FOB
